From US9169355B2, “Biocompatible agent for dispersing nanoparticles into an aqueous medium using mussel adhesive protein-mimetic polymer” (Hanwha Chemical Corporation, priority 2010, dated 2015) come the findings set out here.

The conditions of the series: mouse, in vivo.

As for Fe3O4, the half-life in blood entry is “prolonged”.
